As a reminder, the Ki is the dissociation constant of the complex between target and ligand, obtained from inhibition or displacement. As a reminder, the Km is the concentration of substrate that gives half-maximal velocity.

Data set [1] has as its target T1, Solute carrier family 22 member 2 (Rattus norvegicus, UniProt Q9R0W2).
T1 sequence (Q9R0W2 whole entry): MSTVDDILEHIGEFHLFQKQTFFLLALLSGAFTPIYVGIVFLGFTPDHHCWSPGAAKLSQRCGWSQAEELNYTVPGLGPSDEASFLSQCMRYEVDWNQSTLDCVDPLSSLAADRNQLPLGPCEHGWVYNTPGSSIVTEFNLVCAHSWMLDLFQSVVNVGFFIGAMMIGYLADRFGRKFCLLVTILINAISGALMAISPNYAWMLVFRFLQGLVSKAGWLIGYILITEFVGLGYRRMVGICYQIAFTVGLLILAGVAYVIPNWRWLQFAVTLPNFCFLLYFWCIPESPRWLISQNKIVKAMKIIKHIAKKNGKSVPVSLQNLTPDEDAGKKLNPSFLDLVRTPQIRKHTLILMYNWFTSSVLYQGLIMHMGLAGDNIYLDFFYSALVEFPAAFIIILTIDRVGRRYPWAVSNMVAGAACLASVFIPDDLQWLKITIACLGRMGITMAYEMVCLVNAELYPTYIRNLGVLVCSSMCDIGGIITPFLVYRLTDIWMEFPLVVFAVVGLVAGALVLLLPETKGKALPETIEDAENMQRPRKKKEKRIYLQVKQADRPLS
As to the kind of experiment: TP_TRANSPORTER: inhibition of MPP+ uptake in OCT2-expressing HEK293 cells. It counts as functional, cell-based.

For data set [2], the target named is T1, Solute carrier family 22 member 2. As to the kind of experiment: (§1) TP_TRANSPORTER: uptake in OCT2-expressing HEK293 cells. It counts as functional, cell-based. The following applies: human.
Data set [3] deals with T2, Solute carrier family 22 member 1 (Rattus norvegicus, UniProt Q63089).
T2 sequence (Q63089 whole entry): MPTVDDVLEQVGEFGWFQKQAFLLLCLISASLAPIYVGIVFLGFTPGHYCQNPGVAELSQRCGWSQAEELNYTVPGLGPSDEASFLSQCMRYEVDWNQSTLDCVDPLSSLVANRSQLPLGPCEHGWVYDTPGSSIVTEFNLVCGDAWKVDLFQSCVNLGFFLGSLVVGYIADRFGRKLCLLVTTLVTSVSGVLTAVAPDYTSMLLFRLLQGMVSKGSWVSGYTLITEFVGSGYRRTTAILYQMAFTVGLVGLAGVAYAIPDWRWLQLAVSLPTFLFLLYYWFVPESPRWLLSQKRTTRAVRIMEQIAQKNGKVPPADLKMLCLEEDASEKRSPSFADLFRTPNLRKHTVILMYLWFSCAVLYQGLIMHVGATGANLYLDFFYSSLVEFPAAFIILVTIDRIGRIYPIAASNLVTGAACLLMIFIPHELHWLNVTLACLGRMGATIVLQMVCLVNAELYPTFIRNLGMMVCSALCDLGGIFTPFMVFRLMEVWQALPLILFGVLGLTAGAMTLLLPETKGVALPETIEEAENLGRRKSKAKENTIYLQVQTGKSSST
Kind of data set: TP_TRANSPORTER: inhibition of MPP+ uptake in OCT1-expressing HEK293 cells.

Data set [4] has as its target T3, Solute carrier family 22 member 3 (Homo sapiens, UniProt O75751).
T3 sequence (O75751 whole entry): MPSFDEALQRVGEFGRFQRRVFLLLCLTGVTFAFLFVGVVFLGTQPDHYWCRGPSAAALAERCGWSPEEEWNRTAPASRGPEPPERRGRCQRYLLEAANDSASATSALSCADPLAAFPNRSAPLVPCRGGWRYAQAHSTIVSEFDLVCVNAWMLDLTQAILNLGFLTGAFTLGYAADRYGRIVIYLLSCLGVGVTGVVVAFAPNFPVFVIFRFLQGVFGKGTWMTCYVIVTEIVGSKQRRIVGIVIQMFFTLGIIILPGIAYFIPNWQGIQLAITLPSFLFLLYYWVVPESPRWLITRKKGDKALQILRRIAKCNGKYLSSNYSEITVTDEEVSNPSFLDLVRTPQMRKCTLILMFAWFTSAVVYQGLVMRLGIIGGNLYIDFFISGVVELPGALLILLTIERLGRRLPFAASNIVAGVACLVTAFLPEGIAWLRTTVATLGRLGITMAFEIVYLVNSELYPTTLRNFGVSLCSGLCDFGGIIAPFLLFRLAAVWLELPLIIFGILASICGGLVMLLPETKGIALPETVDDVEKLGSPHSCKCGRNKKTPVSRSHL
As to the kind of experiment: TP_TRANSPORTER: inhibition of MPP+ uptake in OCT3-expressing HEK293 cells.

Substrate in data set [5]: C[n+]1ccc(-c2ccccc2)cc1
The data set is described as §1. It counts as functional, cell-based.

Substrate in data set [6]: N=C(N)N
Described as §1. It counts as functional, cell-based.

As for `N=C(N)N` [GUANIDINE], in data set [1], affinity was put at a Ki of 280 µM.

Turning to `CC[N+](CC)(CC)CC` [TETRYLAMMONIUM], the Activity result in data set [2] was “substrate [+]”.

For `CN1CC(=O)NC1=N` [CREATININE], in data set [2], the Activity entry was “substrate [+]”.

For the molecule `NCCc1c[nH]cn1` [HISTAMINE], the inhibition constant Ki in data set [1] turned out to be 390 µM; in data set [3] it was 1.4 mM; in data set [4], 140 µM.

B1: Solute carrier family 22 member 2 (Rattus norvegicus) (protein)
chain: MSTVDDILEHIGEFHLFQKQTFFLLALLSGAFTPIYVGIVFLGFTPDHHCWSPGAAKLSQRCGWSQAEELNYTVPGLGPSDEASFLSQCMRYEVDWNQSTLDCVDPLSSLAADRNQLPLGPCEHGWVYNTPGSSIVTEFNLVCAHSWMLDLFQSVVNVGFFIGAMMIGYLADRFGRKFCLLVTILINAISGALMAISPNYAWMLVFRFLQGLVSKAGWLIGYILITEFVGLGYRRMVGICYQIAFTVGLLILAGVAYVIPNWRWLQFAVTLPNFCFLLYFWCIPESPRWLISQNKIVKAMKIIKHIAKKNGKSVPVSLQNLTPDEDAGKKLNPSFLDLVRTPQIRKHTLILMYNWFTSSVLYQGLIMHMGLAGDNIYLDFFYSALVEFPAAFIIILTIDRVGRRYPWAVSNMVAGAACLASVFIPDDLQWLKITIACLGRMGITMAYEMVCLVNAELYPTYIRNLGVLVCSSMCDIGGIITPFLVYRLTDIWMEFPLVVFAVVGLVAGALVLLLPETKGKALPETIEDAENMQRPRKKKEKRIYLQVKQADRPLS
Turning to B1, the Km in data set [5] is 9.4 µM; in data set [6] it was 730 µM.

These data come from ChEMBL document CHEMBL2074492, “Selective substrates for non-neuronal monoamine transporters” (Mol Pharmacol, 1999).
